In patent US20200055839A1 (priority 2017, published 2020):

System: NL-RLuc virus
Assay: Inhibition of HIV replication (NL-RLuc virus, luciferase readout in MT-2 cells)
Assay type: cell-based
Conditions: Human immunodeficiency virus 1, MT2, 120 h, MT-2 cells infected with NL-RLuc virus, 5 days of incubation, 10% FBS, at least 2 experiments
Summary of the method: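 MT-2 cells infected with NL4-3-derived virus carrying Renilla luciferase in place of part of nef, grown 5 days with serial compound dilutions in RPMI 1640/10% FBS. Virus growth read as luciferase expression. EC50 from median effect equation, at least 2 experiments.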

Structure (SMILES) | EC50
Cc1nc(NCc2ccccn2)c(-c2ccc(OCCc3ccc(F)cc3)cc2)c(N2CCC(C)(C)CC2)c1[C@H](OC(C)(C)C)C(=O)O [Example 97, (S)-2-(tert-Butoxy)-2-(4-(4,4-dimethylpiperidin-1-yl)-5-(4-(4-fluorophenethoxy)phenyl)-2-methyl-6-((pyridin-2-ylmethyl)amino)pyridin-3-yl)acetic acid] | 5 nM
COc1cccc(-c2cnc(C)c([C@H](OC(C)(C)C)C(=O)O)c2N2CCC(C)(C)CC2)c1Cl [Example 161, (2S)-2-(tert-Butoxy)-2-[5-(2-chloro-3-methoxyphenyl)-4-(4,4-dimethylpiperidin-1-yl)-2-methylpyridin-3-yl]acetic acid] | 9 nM
Cc1ncc(-c2cccnc2)c(N2CCC(C)(C)CC2)c1[C@H](OC(C)(C)C)C(=O)O [Example 155, (2S)-2-(tert-Butoxy)-2-[4-(4,4-dimethylpiperidin-1-yl)-6-methyl-[3, 3′-bipyridine]-5-yl]acetic acid] | 11 nM
Cc1ncc(-c2ccc(OCCc3cc(F)c(F)cc3F)cn2)c(N2CCC(C)(C)CC2)c1[C@H](OC(C)(C)C)C(=O)O [Example 353, (2S)-2-(tert-butoxy)-2-[4′-(4,4-dimethylpiperidin-1-yl)-6′-methyl-5-[2-(2,4,5-trifluorophenyl)ethoxy]-[2,3′-bipyridine]-5′-yl]acetic acid] | 0.8 nM
Cc1cccc(Nc2nc(C)c([C@H](OC(C)(C)C)C(=O)O)c(N3CCC(C)(C)CC3)c2-c2ccc(OCCc3ccc(F)cc3)cc2)n1 [Example 80, (S)-2-(tert-Butoxy)-2-(4-(4,4-dimethylpiperidin-1-yl)-5-(4-(4-fluorophenethoxy)phenyl)-2-methyl-6-((6-methylpyridin-2-yl)amino)pyridin-3-yl)acetic acid] | 2 nM
Cc1nc(Nc2ccncc2)c(-c2ccc(OCCc3ccc(F)cc3)c(F)c2)c(N2CCC(C)(C)CC2)c1[C@H](OC(C)(C)C)C(=O)O [Example 104, (S)-2-(tert-Butoxy)-2-(4-(4,4-dimethylpiperidin-1-yl)-5-(3-fluoro-4-(4-fluorophenethoxy)phenyl)-2-methyl-6-(pyridin-4-ylamino)pyridin-3-yl)acetic acid] | 0.7 nM
COc1ccc(CCOc2ccc(-c3cnc(C)c([C@H](OC(C)(C)C)C(=O)O)c3N3CCC(C)(C)CC3)nc2)cc1C [Example 291, (2S)-2-(tert-butoxy)-2-[4′-(4,4-dimethylpiperidin-1-yl)-5-[2-(4-methoxy-3-methylphenyl)ethoxy]-6′-methyl-[2,3′-bipyridine]-5′-yl]acetic acid] | 2 nM
Cc1nc(Nc2cccnc2)c(-c2ccc(OCCc3ccc(F)cc3)cc2)c(N2CCC(C)(C)CC2)c1[C@H](OC(C)(C)C)C(=O)O [Example 64, (S)-2-(tert-Butoxy)-2-(4-(4,4-dimethylpiperidin-1-yl)-5-(4-(4-fluorophenethoxy)phenyl)-2-methyl-6-(pyridin-3-ylamino)pyridin-3-yl)acetic acid] | 5 nM
Cc1nc(N)c(-c2ccc(OCCc3ccc(F)cc3)cc2F)c(N2CCC(C)(C)CC2)c1[C@H](OC(C)(C)C)C(=O)O [Example 72, (2S)-2-(6-Amino-4-(4,4-dimethylpiperidin-1-yl)-5-(2-fluoro-4-(4-fluorophenethoxy)phenyl)-2-methylpyridin-3-yl)-2-(tert-butoxy)acetic acid] | 2 nM
CCCCCOc1ccc(-c2cnc(C)c([C@H](OC(C)(C)C)C(=O)O)c2N2CCC(C)(C)CC2)cn1 [Example 408, (S)-2-(tert-Butoxy)-2-(4-(4,4-dimethylpiperidin-1-yl)-6-methyl-6′-(pentyloxy)-[3, 3′-bipyridin]-5-yl)acetic acid] | 2 nM
Cc1nc(Nc2ccccn2)c(-c2ccc(OCCc3ccc(F)cc3)cc2)c(N2CCC(C)(C)CC2)c1[C@H](OC(C)(C)C)C(=O)O [Example 63, (S)-2-(tert-Butoxy)-2-(4-(4,4-dimethylpiperidin-1-yl)-5-(4-(4-fluorophenethoxy)phenyl)-2-methyl-6-(pyridin-2-ylamino)pyridin-3-yl)acetic acid] | 6 nM
